Measurements taken from US10392378B2, “Derivatives of 5-phenyl- or 5-heteroarylathiazol-2-carboxylic amide useful for the treatment of inter alia cystic fibrosis” (Proteostasis Therapeutics, Inc., priority 2014, dated 2019).

Legend:
ΔF508-CFTR [1] = target: T1, ΔF508-CFTR (Homo sapiens, UniProt P13569, DEL508-508); assay: hBE equivalent current (Ieq) assay; assay type: cell-based; conditions: compound at 10 uM and VX-809 at 1 uM; primary hBE cells homozygous ΔF508; 24 hours treatment
T1 construct: Primary lung epithelial cells homozygous for the Cystic Fibrosis-causing ΔF508 mutation; endogenous in cells; host or cells: primary human bronchial (lung) epithelial cells homozygous for ΔF508, differentiated at air-liquid interface
T1 sequence (P13569 with tags, fused parts or gaps DEL508-508): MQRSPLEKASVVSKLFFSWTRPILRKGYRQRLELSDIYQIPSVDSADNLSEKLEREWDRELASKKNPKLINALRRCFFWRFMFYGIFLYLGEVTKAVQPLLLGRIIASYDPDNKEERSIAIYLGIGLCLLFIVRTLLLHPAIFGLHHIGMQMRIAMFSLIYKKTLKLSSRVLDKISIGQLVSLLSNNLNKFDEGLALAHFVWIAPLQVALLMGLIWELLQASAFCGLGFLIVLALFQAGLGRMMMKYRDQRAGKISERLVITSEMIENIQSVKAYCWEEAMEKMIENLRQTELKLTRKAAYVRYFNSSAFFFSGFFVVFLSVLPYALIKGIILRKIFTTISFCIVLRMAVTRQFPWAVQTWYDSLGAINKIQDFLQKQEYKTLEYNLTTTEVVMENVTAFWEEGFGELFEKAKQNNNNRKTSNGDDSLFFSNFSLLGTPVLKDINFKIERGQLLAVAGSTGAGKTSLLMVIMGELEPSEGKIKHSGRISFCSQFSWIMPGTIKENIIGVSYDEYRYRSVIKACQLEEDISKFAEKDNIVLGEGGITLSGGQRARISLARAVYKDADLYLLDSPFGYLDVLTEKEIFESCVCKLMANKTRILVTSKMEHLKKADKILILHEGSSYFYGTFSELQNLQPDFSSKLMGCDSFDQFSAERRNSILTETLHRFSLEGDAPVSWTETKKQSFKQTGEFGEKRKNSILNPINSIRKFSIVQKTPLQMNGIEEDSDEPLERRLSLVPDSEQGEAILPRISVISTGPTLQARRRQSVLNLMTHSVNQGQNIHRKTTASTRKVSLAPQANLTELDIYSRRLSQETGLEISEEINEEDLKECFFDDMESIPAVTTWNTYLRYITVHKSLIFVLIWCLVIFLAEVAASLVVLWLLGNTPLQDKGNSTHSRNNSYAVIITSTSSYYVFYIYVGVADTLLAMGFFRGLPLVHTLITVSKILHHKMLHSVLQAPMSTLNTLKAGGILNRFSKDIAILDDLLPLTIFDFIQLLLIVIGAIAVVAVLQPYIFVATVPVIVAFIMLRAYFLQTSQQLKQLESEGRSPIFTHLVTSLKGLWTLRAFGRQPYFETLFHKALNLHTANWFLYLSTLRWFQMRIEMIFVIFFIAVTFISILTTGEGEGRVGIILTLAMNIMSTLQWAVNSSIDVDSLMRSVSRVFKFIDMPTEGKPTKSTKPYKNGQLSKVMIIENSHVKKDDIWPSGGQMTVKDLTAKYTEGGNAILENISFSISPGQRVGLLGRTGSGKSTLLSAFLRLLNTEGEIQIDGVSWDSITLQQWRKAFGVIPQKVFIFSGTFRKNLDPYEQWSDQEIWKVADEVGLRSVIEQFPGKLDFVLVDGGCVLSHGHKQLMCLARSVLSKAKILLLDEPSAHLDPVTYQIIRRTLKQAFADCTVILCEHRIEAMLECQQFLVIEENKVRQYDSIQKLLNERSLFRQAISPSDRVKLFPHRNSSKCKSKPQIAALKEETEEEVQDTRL
Method: Primary lung epithelial cells homozygous for the Cystic Fibrosis-causing ΔF508 mutation were differentiated for a minimum of 4 weeks in an air-liquid interface on Costar 24 well HTS filter plates prior to the equivalent current (Ieq) measurements. Cells were apically mucus-washed for 30 minutes 24h prior to treatment with compounds. The basolateral media was removed and replaced with media containing the compound of interest diluted to its final concentration from DMSO stocks. Treated cells were incubated at 37° C. and 5% CO2 for 24 hours. At the end of the treatment period, the media was changed to the Ieq experimental solution for 30 minutes before the experiment and plates are maintained in a CO2-free incubator during this period. The plates containing the cells were then placed in pre-warmed heating blocks at 36° C.±0.5 for 15 minutes before measurements are taken. The transepithelial voltage (VT) and conductance (GT) were measured using a custom 24 channel current clamp (TECC-24) with 24 well electrode manifold. The Ieq assay measurements were made following additions with standardized time periods: • 1. The baseline VT and GT values were measured for approximately 20 minutes. • 2. Benzamil was added to block ENaC for 15 minutes. • 3. Forskolin plus VX-770 were added to maximally activate ΔF508-CFTR for 27 minutes. • 4. Bumetanide was added to inhibit the NaK2Cl cotransporter and shut-off secretion of chloride.
The activity data captured was the area under the curve (AUC) for the traces of the equivalent chloride current. The AUC was collected from the time of the forskolin/VX-770 addition until the inhibition by bumetanide addition. Correction in response to compound treatment was scored as the increase in the AUC for compound-treated samples over that of vehicle-treated samples. (** indicates activity ≥200% of VX-809 (1 uM) with compound at 10 uM and VX-809 at 1 uM; * indicates activity 100-200% of VX-809 (1 uM) with compound at 10 uM and VX-809 at 1 uM. ^##indicates activity ≥200% of VX-809 (3 uM) with compound at 10 uM and VX-809 at 3 uM; ^#indicates activity 100-200% of VX-809 (3 uM) with compound at 10 uM and VX-809 at 3 uM

ΔF508-CFTR [2] = target: T1, ΔF508-CFTR; assay: Ussing measurements; assay type: cell-based; conditions: compound at 10 uM and VX-809 at 3 uM; primary hBE cells homozygous ΔF508; 24 hours treatment
Method: As discussed above, Ussing measurements are used to measure CFTR activity. In this method, primary lung epithelial cells (hBEs) homozygous for the Cystic Fibrosis-causing ΔF508 mutation are differentiated for a minimum of 4 weeks in an air-liquid interface on SnapWell filter plates prior to the Ussing measurements. Cells are apically mucus-washed for 30 minutes prior to treatment with compounds. The basolateral media is removed and replaced with media containing the compound of interest diluted to its final concentration from DMSO stocks. Treated cells are incubated at 37° C. and 5% CO2 for 24 hours. At the end of the treatment period, the cells on filters are transferred to the Ussing chamber and equilibrated for 30 minutes. The short-circuit current is measured in voltage clamp-mode (Vhold=0 mV), and the entire assay is conducted at a temperature of 36° C. −36.5° C. Once the voltages stabilized, the chambers are clamped, and data is recorded by pulse readings every 5 seconds. Following baseline current stabilization, the following additions can be applied and the changes in current and resistance of the cells can be monitored: • 1. Benzamil to the apical chamber to inhibit ENaC sodium channel. • 2. Forskolin to both chambers to activate ΔF508-CFTR by phosphorylation. • 3. Genistein to both chambers to potentiate ΔF508-CFTR channel opening. • 4. CFTRinh-172 to the apical chamber to inhibit ΔF508-CFTR Cl-conductance.
The inhibitable current (that current that is blocked by CFTRinh-172) is measured as the specific activity of the ΔF508-CFTR channel, and increases in response to compound in this activity over that observed in vehicle-treated samples are identified as the correction of ΔF508-CFTR function imparted by the compound tested.

Row | SMILES | leq (AUC of equivalent chloride current, activity relative to VX-809) (ΔF508-CFTR [1]) | Ussing (CFTRinh-172 inhibitable current, activity relative to VX-809) (ΔF508-CFTR [2])
1 | O=C(NCC1CCCO1)c1ncc(-c2ccccc2)s1 (stereo not drawn) [Example 1, 5-phenyl-N-((tetrahydrofuran-2-yl)methyl)thiazole-2-carboxamide] | ** (activity ≥200% of VX-809 (1 uM) with compound at 10 uM and VX-809 at 1 uM) | 
2 | COCCNC(=O)c1ncc(-c2ccccc2)s1 [Example 2, N-(2-methoxyethyl)-5-phenylthiazole-2-carboxamide] | ** (activity ≥200% of VX-809 (1 uM) with compound at 10 uM and VX-809 at 1 uM) | 
3 | O=C(NCCN1CCOCC1)c1ncc(-c2ccccc2)s1 [Example 3, N-(2-morpholinoethyl)-5-phenylthiazole-2-carboxamide] | ** (activity ≥200% of VX-809 (1 uM) with compound at 10 uM and VX-809 at 1 uM) | 
4 | O=C(NCCCn1ccnc1)c1ncc(-c2ccccc2)s1 [Example 4, N-(3-(1H-imidazol-1-yl)propyl)-5-phenylthiazole-2-carboxamide] | ** (activity ≥200% of VX-809 (1 uM) with compound at 10 uM and VX-809 at 1 uM) | 
5 | Cn1nccc1CCCNC(=O)c1ncc(-c2ccccc2)s1 [Example 5, N-(3-(1-methyl-1H-pyrazol-5-yl)propyl)-5-phenylthiazole-2-carboxamide] | * (activity 100-200% of VX-809 (1 uM) with compound at 10 uM and VX-809 at 1 uM) | 
6 | O=C(NCCc1nnc(CO)s1)c1ncc(-c2ccccc2)s1 [Example 6, N-(2-(5-(hydroxymethyl)-1,3,4-thiadiazol-2-yl)ethyl)-5-phenylthiazole-2-carboxamide] | ** (activity ≥200% of VX-809 (1 uM) with compound at 10 uM and VX-809 at 1 uM) | ## (activity ≥200% of VX-809 (3 uM) with compound at 10 uM and VX-809 at 3 uM)
7 | O=C(NCCc1nnc(CO)o1)c1ncc(-c2ccccc2)s1 [Example 7, N-(2-(5-(hydroxymethyl)-1,3,4-oxadiazol-2-yl)ethyl)-5-phenylthiazole-2-carboxamide] | ** (activity ≥200% of VX-809 (1 uM) with compound at 10 uM and VX-809 at 1 uM) | ## (activity ≥200% of VX-809 (3 uM) with compound at 10 uM and VX-809 at 3 uM)
8 | Cc1c(CO)nnn1CCNC(=O)c1ncc(-c2ccccc2)s1 [Example 8, N-(2-(4-(hydroxymethyl)-5-methyl-1H-1,2,3-triazol-1-yl)ethyl)-5-phenylthiazole-2-carboxamide] | ** (activity ≥200% of VX-809 (1 uM) with compound at 10 uM and VX-809 at 1 uM) | ## (activity ≥200% of VX-809 (3 uM) with compound at 10 uM and VX-809 at 3 uM)
9 | Cc1nnn(CCNC(=O)c2ncc(-c3ccccc3)s2)c1CO [Example 9, N-(2-(5-(hydroxymethyl)-4-methyl-1H-1,2,3-triazol-1-yl)ethyl)-5-phenylthiazole-2-carboxamide] | ** (activity ≥200% of VX-809 (1 uM) with compound at 10 uM and VX-809 at 1 uM) | 
10 | O=C(NC1CC(c2nnc(CO)o2)C1)c1ncc(-c2ccccc2)s1 (stereo not drawn) [Example 10, N-cis-3-(5-(hydroxymethyl)-1,3,4-oxadiazol-2-yl)cyclobutyl)-5-phenylthiazole-2-carboxamide] |  | ## (activity ≥200% of VX-809 (3 uM) with compound at 10 uM and VX-809 at 3 uM)
11 | C[C@@H](O)c1nnc(C2CC(NC(=O)c3ncc(-c4ccccc4)s3)C2)o1 (stereo partly drawn) [Example 11] |  | ## (activity ≥200% of VX-809 (3 uM) with compound at 10 uM and VX-809 at 3 uM)
12 | O=C(NC1CC(n2cc(CO)nn2)C1)c1ncc(-c2ccccc2)s1 (stereo not drawn) [Example 12, N-trans-3-(5-(hydroxymethyl)-1H-1,2,3-triazol-1-yl)cyclobutyl)-5-phenylthiazole-2-carboxamide] |  | ## (activity ≥200% of VX-809 (3 uM) with compound at 10 uM and VX-809 at 3 uM)
